Reference: patent US9409906B2, “Pyrimido[4,5-B]indole derivatives and use thereof in the expansion of hematopoietic stem cells” (UNIVERSITÉ DE MONTRÉAL, priority 2012, dated 2016)
“Also recorded” adds a separate entry of the source.

Tests used:
[1] = system: primary human mobilized CD34+ cells; test: High throughput screening assay on primary human mobilized CD34+ cells, with secondary screen; assay type: cell-based
Excerpt: To identify novel putative agonists of HSC self-renewal, we have adapted a high throughput based-screening assay to test a library of small molecule compounds (5,280 low molecular weight compounds) on primary human mobilized CD34+ cells. It is to be understood that the same approach applies to CD34+ cells from the various sources known by a person skilled in the art to isolate CD34+ cells. Mononuclear cells were stained with Mouse antihuman CD34+APC (from BD Pharmingen) and subsequently magnetically labeled with Anti-APC magnetic MicroBeads (from MACS, Miltenyi Biotec). The magnetically labeled cells were retained using AutoMACS column. […]
In a 384-well plate, 2000 CD34^+ cells/well were cultured in 50 μl medium containing 1 μM of test compounds or 0.1% DMSO (vehicle). The proportion of CD34^+CD45RA^− cells was determined at the start of the experiment and after a 7-day incubation. Six out of the 5,280 compounds of different chemical backgrounds initially tested promoted CD34+CD45RA− cell expansion, and seventeen (17) enhanced differentiation as determined by the increase in proportions of CD34−CD45RA+ cells compared to control (DMSO). The six compounds promoting expansion of the CD34+CD45RA− cell population were re-analyzed in a secondary screen. […]

[2] = system: AhR-responsive genes (CYP1B1 and AhRR); test: Real-time quantitative RT-PCR for AhR-responsive genes (FIG. 1); assay type: cell-based, human; conditions: mPB CD34(+) cells, 12 hours, Compound 1 500 nM
Description: Mobilized peripheral blood CD34(+) cells were cultured for 12 hours with DMSO, SR1 [AhR antagonist 1000 nM], and Compound 1 [500 nM], cells were harvested and real-time quantitative RT-PCR for AhR-responsive genes (CYP1B1 and AhRR) was performed.

[3] = system: CD34+ cells from mobilized PB; test: Long term 10-day ex vivo culture of CD34+ cells from mobilized PB; assay type: cell-based, human
Description: The following biological assays were used to assess the effect of the compounds of the invention on hematopoietic stem cell expansion. Culture medium: The culture medium used consisted of serum-free medium supplemented with the following recombinant cytokines: interleukin-6, thrombopoietin, Flt-3 ligand, and stem cell factor, each at a final concentration of 100 ng/ml, in the presence of vehicle (DMSO), positive control (SR1), or compound of the invention or a combination of compounds. Cell Culture: CD34+ cell purity of initial harvests was higher than 90%, as determined by flow cytometry. The CD34+CD45RA− subpopulation reached purity levels higher than 70%. Cells were plated at 40,000 cells/ml and incubated for 7 to 12-days at 37° C. in 5% CO2. For long term cultures, 200,000 CD34+ cells/ml from mobilized PB were plated with serum free media supplemented with interleukin-6, thrombopoietin, Flt3 ligand, and stem cell factor, each at a final concentration of 100 ng/ml, in the presence of vehicle (DMSO), positive control, or a compound of the invention at 500 nM. After a 10-day ex vivo culture Compound 1 (Table 1) promoted more than 7-fold expansion of MNCs, more than 5-fold increase in CD34+ cells over input values (day 0), and almost 4-fold increase over the values determined for vehicle. After 10 days of ex vivo culture, Compound 1-treated cells retained a high level of CD34 expression (65.8±5.5%) compared to cells cultured with vehicle (DMSO) (22.8±0.9%). Moreover, only Compound 1-treated cells retained the highest expression of CD34+CD45RA− population (24.8±0.9%) compared to that of vehicle (4.7±0.4%). The numbers of CD34+CD45RA− cultured with Compound 1 increased by almost 3-fold compared to that of vehicle and 7-fold more than that of input. Finally, the compounds of the invention were assayed in a dose-response format (concentrations ranging from 1 nM to 5000 nM) to determine the effective concentration that produced a 50% increase in the number of CD34+CD45RA− cells compared to vehicle condition.

[4] = system: Mobilized peripheral blood CD34(+) cells; test: Growth factor (Flt3, SCF, TPO) requirement / mitogen test (FIG. 3); assay type: cell-based, human
Description: FIG. 3: Flt3, SCF, and TPO are required for compound 1 mediated stem cell expansion. Mobilized peripheral blood CD34(+) cells were cultured for 7 days in the presence or absence of the growth factors (Flt3+SCF+TPO).
This indicate that akin to SR1, Compound 1's effect on maintenance of primitive HSC phenotype ex vivo is not due to a mitogenic effect on this population but rather on the prevention of cell differentiation.

[5] = system: CD34+ mobilized peripheral blood (mPB) cells; test: Ex vivo expansion of mobilized peripheral blood-derived CD34+ and CD34+CD45RA− cells (FIG. 5A); assay type: cell-based, human
Excerpt: FIG. 5: A) Compound 1 expands mobilized peripheral blood-derived CD34+ and CD34+CD45RA− cell populations ex vivo. […] This observation was enhanced with the co-treatment with SR1.
[…]. The level of expansion is the same whether cultures are initiated with Compound 1, SR1, Compound 1+SR1, or control DMSO. […] […].

[6] = system: CD34+CD45RA− cord blood cells; test: Ex vivo expansion of cord blood-derived CD34+ and CD34+CD45RA− cells (FIG. 5B, 5C); assay type: cell-based, human
[7] = system: CD34+ mPB cells; test: Colony-forming units in culture (CFU-C) assay in methylcellulose; assay type: cell-based, human; conditions: 1000 CD34+ mPB cells treated for 10 days
Description: The ex vivo functionality of expanded cells was tested using the conventional colony-forming units in culture (CFU-C) assay. Untreated cells or cells incubated with DMSO, positive control or a compound of the invention were plated in methylcellulose medium in conventional conditions. As an example, Compound 1 (Table 1, Example 1) expands the number of multipotent hematopoietic progenitors.

[8] = system: CD34+ mPB cells transplanted in NSG mice; test: Engraftment of cultured CD34+ mPB cells in NSG mice
[9] = outcome of 2,000,000 and 500,000 cells cultured 10 days, 8 weeks post transplantation

COC(=O)c1ccc2c(c1)[nH]c1ncnc(NCCCN3CCCCC3)c12 [Compound 1, Methyl 4-((3-(piperidin-1-yl)propyl)amino)-9H-pyrimido[4,5-b]indole-7-carboxylate]
aryl hydrocarbon receptor (AhR) antagonism [1]: not being aryl hydrocarbon receptor (AhR) antagonists | expansion of MNCs including CD34+ cells ([1]; 7-day incubation): promote the expansion of MNCs including CD34+ cells | suppression of AhR-downstream target genes (CYP1B1 and AhRR) [2]: does not suppress AhR-downstream target genes | expansion of MNCs ([3]; 10-day ex vivo culture, 500 nM): more than 7 fold | increase in CD34+ cells over input values (day 0) ([3]; 10-day ex vivo culture, 500 nM): more than 5 fold | increase in CD34+ cells over the values determined for vehicle ([3]; 10-day ex vivo culture, 500 nM): ~4 fold | numbers of CD34+CD45RA− compared to input ([3]; 10-day ex vivo culture, 500 nM): 7 fold | numbers of CD34+CD45RA− compared to vehicle ([3]; 10-day ex vivo culture, 500 nM): ~3 fold | expression of CD34+CD45RA− population ([3]; after 10 days of ex vivo culture, vehicle 4.7±0.4%): 24.8±0.9% | level of CD34 expression ([3]; after 10 days of ex vivo culture, vehicle 22.8±0.9%): 65.8±5.5% | induction of cell proliferation in the absence of growth factors (Flt3, TPO, SCF) [4]: not able to induce cell proliferation | CD34+CD45RA− cell count in the absence of any of the growth factors ([4]; 7 days, with or without Flt3+SCF+TPO): lower | expansion of CD34+CD45RA− cell subpopulation ([5]; 12-days culture): about ten fold | total cell count increase above the input ([5]; 12-days culture): about 20 fold | CD34+ population vs DMSO ([5]; FIG. 5A): more than twice | CD34+CD45RA− population vs DMSO ([5]; FIG. 5A): more than three times | total cell count vs DMSO ([5]; FIG. 5A): the same | expansion of cord blood-derived CD34+ and CD34+CD45RA− cells ([6]; 7-day incubation): enhances expansion | in vitro expansion of cord blood-derived CD34+ and CD34+CD45RA− cells ([6]; 12-day incubation): positive effect | expansion of CD34+CD45RA− cord blood cells ([6]; seven day period, DMSO about fifteen fold): 30-40 fold | increase in multilineage GEMM colonies compared to control cells [7]: 10 fold | increase in multilineage GEMM colonies over input cells [7]: 5 fold | human hematopoietic engraftment (human CD45+ cells in BM) ([8]; cells cultured ten days, outcome of 50,000 and 500,000 cells, 13 week post-transplantation): superior to SR1; also recorded: engrafted better than that of DMSO | engraftment of NSG mice (human CD45) [8, 9]: able to engraft NSG mice | reconstitution of human myeloid and lymphoid compartments in bone marrow [8, 9]: positive for human CD33+ and CD19+
